Data taken from PubChem BioAssay (NCI).
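Where inhibition never reached the appropriate level, the endpoint shown equals the highest concentration tested. Otherwise, values were interpolated linearly from a five-concentration, 48-hour dose response in 96-well plates. TGI is the concentration that stops growth completely.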

Experiments:
Experiment in all cases: NCI tumour cell line growth inhibition, 48 h
[1] = test system: A498 renal
[2] = test system: A549 NSCLC
[3] = test system: ACHN renal
[4] = test system: CCRF-CEM leukemia
[5] = test system: COLO 205 colon
[6] = test system: DU-145 prostate
[7] = test system: EKVX NSCLC
[8] = test system: HCC-2998 colon
[9] = test system: HCT-116 colon
[10] = test system: HCT-15 colon
[11] = test system: HOP-62 NSCLC
[12] = test system: K-562 leukemia
[13] = test system: KM12 colon
[14] = test system: LOX IMVI melanoma
[15] = test system: M14 melanoma
[16] = test system: MDA-MB-231 breast
[17] = test system: MDA-N
[18] = test system: MOLT-4 leukemia
[19] = test system: NCI-H226 lung
[20] = test system: NCI-H23 lung
[21] = test system: NCI-H460 lung
[22] = test system: NCI-H522 lung
[23] = test system: NCI/ADR-RES ovarian
[24] = test system: OVCAR-3 ovarian
[25] = test system: OVCAR-4 ovarian
[26] = test system: OVCAR-5 ovarian
[27] = test system: OVCAR-8 ovarian
[28] = test system: PC-3 prostate
[29] = test system: RXF 393 renal
[30] = test system: SF-268 CNS
[31] = test system: SF-295 CNS
[32] = test system: SF-539 CNS
[33] = test system: SK-MEL-2 melanoma
[34] = test system: SK-MEL-28 melanoma
[35] = test system: SK-MEL-5 melanoma
[36] = test system: SN12C renal
[37] = test system: SNB-75 CNS
[38] = test system: T-47D breast
[39] = test system: UACC-257 melanoma
[40] = test system: UACC-62 melanoma
[41] = test system: 786-0 renal
[42] = test system: CAKI-1 renal
[43] = test system: HL-60(TB) leukemia
[44] = test system: HT29 colon
[45] = test system: IGROV1 ovarian
[46] = test system: MALME-3M melanoma
[47] = test system: MCF7 breast
[48] = test system: MDA-MB-435
[49] = test system: RPMI-8226 leukemia
[50] = test system: SK-OV-3 ovarian
[51] = test system: SNB-19 CNS
[52] = test system: SR leukemia
[53] = test system: SW-620 colon
[54] = test system: TK-10 renal
[55] = test system: U251 CNS
[56] = test system: UO-31 renal

O=c1oc2ccccc2c(O)c1/C=N/C(=S)Nc1ccccc1 gave a TGI [1] of over 100 µM, a TGI [2] of over 100 µM and a TGI [3] of over 100 µM. It also gave a TGI [4] of over 100 µM, a TGI [5] of over 100 µM and a TGI [6] of over 100 µM. The TGI [7] was over 100 µM, the TGI [8] was over 100 µM and the TGI [9] was over 100 µM. The TGI [10] was over 100 µM, the TGI [11] was over 100 µM and the TGI [12] was over 100 µM. For the same molecule, the TGI [13] was over 100 µM, the TGI [14] was over 100 µM and the TGI [15] was over 100 µM. It also gave a TGI [16] of over 100 µM, a TGI [17] of over 100 µM and a TGI [18] of over 100 µM. The TGI [19] was over 100 µM, the TGI [20] was over 100 µM and the TGI [21] was over 100 µM. The TGI [22] was over 100 µM, the TGI [23] was over 100 µM and the TGI [24] was over 100 µM. It also gave a TGI [25] of over 100 µM, a TGI [26] of over 100 µM and a TGI [27] of over 100 µM. For the same molecule, the TGI [28] was over 100 µM, the TGI [29] was 0.833 µM and the TGI [30] was over 100 µM. The TGI [31] was over 100 µM, the TGI [32] was over 100 µM and the TGI [33] was 94.7 µM. It also gave a TGI [34] of over 100 µM, a TGI [35] of over 100 µM and a TGI [36] of over 100 µM. For the same molecule, the TGI [37] was 97.8 µM, the TGI [38] was over 100 µM and the TGI [39] was over 100 µM. The TGI [40] was over 100 µM.

Work on N#CCCC1(CCC#N)CCc2ccccc2C1=O yielded a TGI [41] of over 100 µM, a TGI [3] of over 100 µM and a TGI [42] of over 100 µM. It also gave a TGI [4] of over 100 µM, a TGI [6] of over 100 µM and a TGI [7] of over 100 µM. It also gave a TGI [8] of over 100 µM, a TGI [9] of over 100 µM and a TGI [10] of over 100 µM. It also gave a TGI [43] of over 100 µM, a TGI [11] of over 100 µM and a TGI [44] of over 100 µM. The TGI [45] was over 100 µM, the TGI [12] was over 100 µM and the TGI [13] was over 100 µM. For the same molecule, the TGI [14] was over 100 µM, the TGI [15] was over 100 µM and the TGI [46] was over 100 µM. The TGI [47] was over 100 µM, the TGI [16] was over 100 µM and the TGI [48] was over 100 µM. It also gave a TGI [17] of over 100 µM, a TGI [18] of over 100 µM and a TGI [19] of over 100 µM. For the same molecule, the TGI [20] was over 100 µM, the TGI [21] was over 100 µM and the TGI [22] was over 100 µM. The TGI [23] was over 100 µM, the TGI [24] was over 100 µM and the TGI [25] was over 100 µM. It also gave a TGI [26] of over 100 µM, a TGI [27] of over 100 µM and a TGI [28] of over 100 µM. It also gave a TGI [49] of over 100 µM, a TGI [30] of over 100 µM and a TGI [32] of over 100 µM. The TGI [33] was over 100 µM, the TGI [34] was over 100 µM and the TGI [35] was over 100 µM. For the same molecule, the TGI [50] was over 100 µM, the TGI [36] was over 100 µM and the TGI [51] was over 100 µM. The TGI [37] was over 100 µM, the TGI [52] was over 100 µM and the TGI [53] was over 100 µM. The TGI [38] was over 100 µM, the TGI [54] was over 100 µM and the TGI [55] was over 100 µM. It also gave a TGI [39] of over 100 µM, a TGI [40] of over 100 µM and a TGI [56] of over 100 µM.
